Patent publication US10966978B2, “Dose and regimen for HDM2-p53 interaction inhibitors” (Novartis AG, priority 2016, dated 2021)
Like-named read-outs stand apart in the source and are kept apart here.

System: patients with advanced TP53 wild-type (WT) leukemias

COc1ncc(-c2nc3c(n2C(C)C)[C@H](c2ccc(Cl)cc2)N(c2cc(Cl)cn(C)c2=O)C3=O)c(OC)n1 [HDM201, (S)-5-(5-Chloro-1-methyl-2-oxo-1,2-dihydro-pyridin-3-yl)-6-(4-chloro-phenyl)-2-(2,4-dimethoxy-pyrimidin-5-yl)-1-isopropyl-5,6-dihydro-1H-pyrrolo[3,4-d]imidazol-4-one]
AE: Iron Overload (Regimen 1A N = 16, Grade 3/4): 0 n (%) | AE: Leukopenia (Regimen 1A N = 16, Grade 3/4): 2 (12.5) n (%) | AE: Lip Oedema (Regimen 1A N = 16, Grade 3/4): 0 n (%) | AE: Lipase Increased (Regimen 1A N = 16, Grade 3/4): 2 (12.5) n (%) | AE: Macular Oedema (Regimen 1A N = 16, Grade 3/4): 0 n (%) | AE: Malaise (Regimen 1A N = 16, Grade 3/4): 0 n (%) | AE: Mouth Haemorrhage (Regimen 1A N = 16, Grade 3/4): 0 n (%) | AE: Nausea (Regimen 1A N = 16, Grade 3/4): 0 n (%) | AE: Neutropenia/Neutrophil Count Decreased (Regimen 1A N = 16, Grade 3/4): 6 (37.5) n (%) | AE: Oedema (Regimen 1A N = 16, Grade 3/4): 0 n (%) | AE: Oral Disorder (Regimen 1A N = 16, Grade 3/4): 0 n (%) | AE: Pain In Extremity (Regimen 1A N = 16, Grade 3/4): 0 n (%) | AE: Pancytopenia (Regimen 1A N = 16, Grade 3/4): 0 n (%) | AE: Pneumonia (Regimen 1A N = 16, Grade 3/4): 0 n (%) | AE: Pollakiuria (Regimen 1A N = 16, Grade 3/4): 0 n (%) | AE: Pyrexia (Regimen 1A N = 16, Grade 3/4): 0 n (%) | AE: Rash (Regimen 1A N = 16, Grade 3/4): 0 n (%) | AE: Rash Erythematous (Regimen 1A N = 16, Grade 3/4): 0 n (%) | AE: Rash Papular (Regimen 1A N = 16, Grade 3/4): 0 n (%) | AE: Rectal Haemorrhage (Regimen 1A N = 16, Grade 3/4): 0 n (%) | AE: Renal Failure (Regimen 1A N = 16, Grade 3/4): 0 n (%) | AE: Skin Exfoliation (Regimen 1A N = 16, Grade 3/4): 0 n (%) | AE: Stomatitis (Regimen 1A N = 16, Grade 3/4): 1 (6.3) n (%) | AE: Subarachnoid Haemorrhage (Regimen 1A N = 16, Grade 3/4): 1 (6.3) n (%) | AE: Thrombocytopenia/Platelet Count Decreased (Regimen 1A N = 16, Grade 3/4): 8 (50.0) n (%) | AE: Total (Regimen 1A N = 16, Grade 3/4): 12 (75.0) n (%) | AE: Tumour Lysis Syndrome (Regimen 1A N = 16, Grade 3/4): 7 (43.8) n (%) | AE: Vomiting (Regimen 1A N = 16, Grade 3/4): 0 n (%) | AE: Weight Decreased (Regimen 1A N = 16, Grade 3/4): 0 n (%) | AE: White Blood Cell Count Decreased (Regimen 1A N = 16, Grade 3/4): 0 n (%) | AE: Abdominal Discomfort (Regimen 1B N = 6, All Grades): 0 n (%) | AE: Abdominal Pain (Regimen 1B N = 6, All Grades): 0 n (%) | AE: Abdominal Pain Upper (Regimen 1B N = 6, All Grades): 0 n (%) | AE: Acute Kidney Injury (Regimen 1B N = 6, All Grades): 1 (16.7) n (%) | AE: Amylase Increased (Regimen 1B N = 6, All Grades): 0 n (%) | AE: Anaemia (Regimen 1B N = 6, All Grades): 2 (33.3) n (%) | AE: Arthralgia (Regimen 1B N = 6, All Grades): 0 n (%) | AE: Asthenia (Regimen 1B N = 6, All Grades): 1 (16.7) n (%) | AE: Atrial Fibrillation (Regimen 1B N = 6, All Grades): 0 n (%) | AE: Atypical Pneumonia (Regimen 1B N = 6, All Grades): 0 n (%) | AE: Balanitis Candida (Regimen 1B N = 6, All Grades): 0 n (%) | AE: Blood Alkaline Phosphatase Increased (Regimen 1B N = 6, All Grades): 0 n (%) | AE: Blood Bilirubin Increased (Regimen 1B N = 6, All Grades): 1 (16.7) n (%) | AE: Blood Creatinine Increased (Regimen 1B N = 6, All Grades): 0 n (%) | AE: Blood Phosphorus Increased (Regimen 1B N = 6, All Grades): 1 (16.7) n (%) | AE: Blood Uric Acid Increased (Regimen 1B N = 6, All Grades): 0 n (%) | AE: Bone Marrow Failure (Regimen 1B N = 6, All Grades): 0 n (%) | AE: C-Reactive Protein Increased (Regimen 1B N = 6, All Grades): 0 n (%) | AE: Cardiac Failure (Regimen 1B N = 6, All Grades): 0 n (%) | AE: Cellulitis (Regimen 1B N = 6, All Grades): 1 (16.7) n (%) | AE: Chronic Graft Versus Host Disease (Regimen 1B N = 6, All Grades): 0 n (%) | AE: Conjunctival Haemorrhage (Regimen 1B N = 6, All Grades): 0 n (%) | AE: Constipation (Regimen 1B N = 6, All Grades): 1 (16.7) n (%) | AE: Cough (Regimen 1B N = 6, All Grades): 0 n (%) | AE: Cystitis Viral (Regimen 1B N = 6, All Grades): 0 n (%) | AE: Cytomegalovirus Infection (Regimen 1B N = 6, All Grades): 0 n (%) | AE: Decreased Appetite (Regimen 1B N = 6, All Grades): 1 (16.7) n (%) | AE: Diarrhoea (Regimen 1B N = 6, All Grades): 0 n (%) | AE: Dyspepsia (Regimen 1B N = 6, All Grades): 0 n (%) | AE: Dyspnoea (Regimen 1B N = 6, All Grades): 0 n (%) | AE: Epistaxis (Regimen 1B N = 6, All Grades): 0 n (%) | AE: Fatigue (Regimen 1B N = 6, All Grades): 0 n (%) | AE: Febrile Neutropenia (Regimen 1B N = 6, All Grades): 2 (33.3) n (%) | AE: Gamma-Glutamyltransferase Increased (Regimen 1B N = 6, All Grades): 0 n (%) | AE: General Physical Health Deterioration (Regimen 1B N = 6, All Grades): 0 n (%) | AE: Gingival Bleeding (Regimen 1B N = 6, All Grades): 0 n (%) | AE: Graft Versus Host Disease (Regimen 1B N = 6, All Grades): 0 n (%) | AE: Haemoglobin Decreased (Regimen 1B N = 6, All Grades): 0 n (%) | AE: Headache (Regimen 1B N = 6, All Grades): 1 (16.7) n (%) | AE: Hyperbilirubinaemia (Regimen 1B N = 6, All Grades): 1 (16.7) n (%) | AE: Hyperglycaemia (Regimen 1B N = 6, All Grades): 0 n (%) | AE: Hyperkalaemia (Regimen 1B N = 6, All Grades): 1 (16.7) n (%) | AE: Hyperphosphataemia (Regimen 1B N = 6, All Grades): 1 (16.7) n (%) | AE: Hyperuricaemia (Regimen 1B N = 6, All Grades): 2 (33.3) n (%) | AE: Hypoalbuminaemia (Regimen 1B N = 6, All Grades): 0 n (%) | AE: Hypocalcaemia (Regimen 1B N = 6, All Grades): 0 n (%) | AE: Hypokalaemia (Regimen 1B N = 6, All Grades): 1 (16.7) n (%) | AE: Hypomagnesaemia (Regimen 1B N = 6, All Grades): 0 n (%) | AE: Hyponatraemia (Regimen 1B N = 6, All Grades): 1 (16.7) n (%) | AE: Hypophosphataemia (Regimen 1B N = 6, All Grades): 0 n (%) | AE: Hypotension (Regimen 1B N = 6, All Grades): 0 n (%) | AE: Infection (Regimen 1B N = 6, All Grades): 0 n (%) | AE: Infective Glossitis (Regimen 1B N = 6, All Grades): 0 n (%) | AE: Iron Overload (Regimen 1B N = 6, All Grades): 0 n (%) | AE: Leukopenia (Regimen 1B N = 6, All Grades): 0 n (%) | AE: Lip Oedema (Regimen 1B N = 6, All Grades): 0 n (%) | AE: Lipase Increased (Regimen 1B N = 6, All Grades): 0 n (%) | AE: Macular Oedema (Regimen 1B N = 6, All Grades): 1 (16.7) n (%) | AE: Malaise (Regimen 1B N = 6, All Grades): 0 n (%) | AE: Mouth Haemorrhage (Regimen 1B N = 6, All Grades): 0 n (%) | AE: Nausea (Regimen 1B N = 6, All Grades): 4 (66.7) n (%) | AE: Neutropenia/Neutrophil Count Decreased (Regimen 1B N = 6, All Grades): 1 (16.7) n (%) | AE: Oedema (Regimen 1B N = 6, All Grades): 0 n (%) | AE: Oedema Peripheral (Regimen 1B N = 6, All Grades): 1 (16.7) n (%) | AE: Oral Disorder (Regimen 1B N = 6, All Grades): 0 n (%) | AE: Pain In Extremity (Regimen 1B N = 6, All Grades): 0 n (%) | AE: Pancytopenia (Regimen 1B N = 6, All Grades): 1 (16.7) n (%) | AE: Pneumonia (Regimen 1B N = 6, All Grades): 0 n (%) | AE: Pollakiuria (Regimen 1B N = 6, All Grades): 0 n (%) | AE: Pyrexia (Regimen 1B N = 6, All Grades): 0 n (%) | AE: Rash (Regimen 1B N = 6, All Grades): 0 n (%) | AE: Rash Erythematous (Regimen 1B N = 6, All Grades): 0 n (%) | AE: Rash Papular (Regimen 1B N = 6, All Grades): 0 n (%) | AE: Rectal Haemorrhage (Regimen 1B N = 6, All Grades): 1 (16.7) n (%) | AE: Renal Failure (Regimen 1B N = 6, All Grades): 0 n (%) | AE: Skin Exfoliation (Regimen 1B N = 6, All Grades): 0 n (%)
